Common to all, as to conditions: pH 7.4; 25 °C
In one experiment the target is Histamine H4 receptor (Homo sapiens, UniProt Q9H3N8). The experiment can be described thus: H4R Radioligand Binding Assay. Here is the method: Ligand displacement assays were performed on CHO cells membranes expressing hH4R. Retained radioactivity was determined by liquid scintillation counting. Nonspecific binding was determined in the presence of 10 uM histamine. The Ki values were calculated based on an experimentally determined appropriate Kd value according to Cheng and Prusoff.

Experiment [1] concerns the target T1, Histamine H3 receptor (Homo sapiens, UniProt Q9Y5N1). The experiment can be described thus: Radioligand Binding Assay and Functional [35S]GTP-gamma-S Binding Assay. Here is the method:
Ligand displacement assays were performed on CHO cells membranes expressing hH3R. Retained radioactivity was determined by liquid scintillation counting. Nonspecific binding was determined in the presence of 1 uM thioperamide. The Ki values were calculated based on an experimentally determined appropriate Kd value according to Cheng and Prusoff. EC50 is a measure of functional property of compound on [35S]GTP-gamma-S binding to membranes expressing H3R receptors.

The target of experiment [2] is T1, Histamine H3 receptor. The experiment can be described thus: H3R Radioligand Binding Assay.

The source of these data is BindingDB's records for doi:10.1021/jm7014149 (Vu University Amsterdam, 2008).

One may read the Ki as a measure of affinity in units of concentration, obtained from inhibition or displacement.

The structures appear in SMILES notation.

T1 sequence (Q9Y5N1 whole entry): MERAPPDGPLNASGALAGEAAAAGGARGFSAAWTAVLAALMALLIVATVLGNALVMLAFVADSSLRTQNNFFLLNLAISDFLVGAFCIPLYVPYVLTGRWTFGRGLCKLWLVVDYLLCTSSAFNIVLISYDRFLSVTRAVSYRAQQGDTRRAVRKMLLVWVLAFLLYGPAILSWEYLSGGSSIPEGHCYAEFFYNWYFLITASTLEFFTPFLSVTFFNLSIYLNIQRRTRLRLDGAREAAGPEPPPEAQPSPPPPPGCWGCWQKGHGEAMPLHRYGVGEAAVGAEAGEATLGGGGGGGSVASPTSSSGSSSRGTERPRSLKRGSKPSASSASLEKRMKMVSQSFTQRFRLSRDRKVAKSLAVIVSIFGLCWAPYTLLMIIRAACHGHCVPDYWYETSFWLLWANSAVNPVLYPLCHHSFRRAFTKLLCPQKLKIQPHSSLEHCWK
Sequence of Histamine H4 receptor (Q9H3N8 whole entry): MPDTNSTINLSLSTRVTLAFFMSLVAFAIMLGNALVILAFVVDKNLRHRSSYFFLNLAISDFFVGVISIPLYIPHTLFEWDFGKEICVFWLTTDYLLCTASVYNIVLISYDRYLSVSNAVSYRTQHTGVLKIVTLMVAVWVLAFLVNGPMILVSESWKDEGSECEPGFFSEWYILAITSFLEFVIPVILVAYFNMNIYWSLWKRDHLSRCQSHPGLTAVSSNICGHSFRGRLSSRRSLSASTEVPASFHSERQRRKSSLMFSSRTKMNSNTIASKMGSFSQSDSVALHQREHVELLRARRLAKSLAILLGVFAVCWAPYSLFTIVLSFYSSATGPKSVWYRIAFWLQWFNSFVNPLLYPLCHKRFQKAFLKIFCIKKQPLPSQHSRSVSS

For the compound `CC(C)(C)CC(=O)c1cccc(Cc2cnc[nH]2)c1` [1-[3-(1H-imidazol-4-ylmethyl)phenyl]-3,3-dimethylbutan-1-one], affinity at Histamine H4 receptor was put at a Ki of 6 nM.
`CC1CC(C)(C)N=C(c2cccc(Cc3c[nH]cn3)c2)O1` (stereo unspecified) [2-[3-(1H-imidazol-4-ylmethyl)phenyl]-4,4,6-trimethyl-5,6-dihydro-4H-1,3-oxazine] showed a Ki at Histamine H3 receptor [1] of 1 nM.
Consider `C(#Cc1cccc(Cc2cnc[nH]2)c1)c1ccccc1` [4-{[3-(2-phenylethynyl)phenyl]methyl}-1H-imidazole], for which affinity on Histamine H3 receptor [2] was put at a Ki of 2 nM.
Take `CC(C)(C)C#Cc1cccc(Cc2c[nH]cn2)c1` [4-{[3-(3,3-dimethylbut-1-yn-1-yl)phenyl]methyl}-1H-imidazole]: the values for the inhibition constant (Ki) at Histamine H3 receptor [1] and on Histamine H4 receptor were 4 nM and 6 nM, respectively.
`CCCC#Cc1cccc(Cc2c[nH]cn2)c1` [4-{[3-(pent-1-yn-1-yl)phenyl]methyl}-1H-imidazole] displayed an inhibitory constant (Ki) at Histamine H3 receptor [2] of 3 nM.
